The subject of this experiment is Nude mice, LX-1 lung xenograft intrarenal, tumor weight T/C. The experiment is described as follows: NCI In Vivo Anticancer Drug Screen. Data for tumor model Human Lung LX-1 Xenograft (intrarenal inoculation) in NU/NU BALB/C (nude) mice. Particulars: endpoint: mean tumor weight change, higher = larger tumour. The method, then:
The antitumor activity of compounds was measured in mice bearing transplantable tumors. Survival or tumor size were measured and the results are expressed as the measurement made in the treated group (T) divided by the measurement made in the vehicle treated control group (C). The tumor model used in this assay is Human Lung LX-1 Xenograft (intrarenal inoculation) in NU/NU BALB/C (nude) mice

Setting [1] is: dose: 300.0 mg/kg/injection, schedule: Q04DX003 (sc), vehicle: saline with Tween-80.
The mark [2] stands for this setting: dose: 600.0 mg/kg/injection, schedule: Q04DX003 (sc), vehicle: saline with Tween-80.
Where [3] appears, read: dose: 1200.0 mg/kg/injection, schedule: Q04DX003 (sc), vehicle: saline with Tween-80.
Where [4] appears, read: dose: 100.0 mg/kg/injection, schedule: Q01DX010 (sc), vehicle: saline with Tween-80.
Where [5] appears, read: dose: 200.0 mg/kg/injection, schedule: Q01DX010 (sc), vehicle: saline with Tween-80.
Where [6] appears, read: dose: 12.5 mg/kg/injection, schedule: Q01DX010 (sc), vehicle: saline with Tween-80.

Each structure is given as a SMILES string. Inconclusive results are not listed. Starred links: 1 amine or outer side, 2 acyl side, 3 side chain; linkers in the order of their positions; H or OH if unused. Positions of bridges follow the written chain, without caps; N, C: chain ends. Non-standard residues stand in square brackets, D forms with d. Residues, ends and D or L forms follow the SMILES beside them. Chains are numbered I, II in the order given. Actinocin(9to1) = Cc1c2oc3c(C)ccc(C(=O)[*:1])c3nc-2c(C(=O)[*:2])c(N)c1=O; aThr = C[C@H](O)[C@H](N)C(=O)O; NMeV = CN[C@H](C(=O)O)C(C)C; Sar = CNCC(=O)O

Turning to `C=CC(C)NC(=S)NNC(=S)NC` (stereo not given), the T/C by setting is: (dose: 300.0 mg/kg/injection, schedule: Q04DX003 (sc), vehicle: saline + alcohol) 115 % of control; (dose: 600.0 mg/kg/injection, schedule: Q04DX003 (sc), vehicle: saline + alcohol) 87 % of control; (dose: 1200.0 mg/kg/injection, schedule: Q04DX003 (sc), vehicle: saline + alcohol) 87 % of control; (dose: 2400.0 mg/kg/injection, schedule: Q04DX003 (sc), vehicle: saline + alcohol) 78 % of control.
As to `C[C@]12CCC(=O)C(O)=C1CC[C@@H]1[C@@H]2CC[C@]2(C)C(=O)CC[C@@H]12`, the T/C is, setting by setting: (dose: 150.0 mg/kg/injection, schedule: Q04DX003 (ip), vehicle: Klucel (hydroxypropylcellulose) (HPC)) 61 % of control; (dose: 300.0 mg/kg/injection, schedule: Q04DX003 (ip), vehicle: Klucel (hydroxypropylcellulose) (HPC)) 99 % of control; (dose: 600.0 mg/kg/injection, schedule: Q04DX003 (ip), vehicle: Klucel (hydroxypropylcellulose) (HPC)) 89 % of control.
Take `O=C1NC(O)CCN1C1OC(CO)C(O)C1O` (stereo not given): the T/C runs as follows: (dose: 200.0 mg/kg/injection, schedule: Q01DX010 (sc), vehicle: water) 257 % of control; (dose: 400.0 mg/kg/injection, schedule: Q01DX010 (sc), vehicle: water) 196 % of control; (dose: 800.0 mg/kg/injection, schedule: Q01DX010 (sc), vehicle: water) 223 % of control; (dose: 1600.0 mg/kg/injection, schedule: Q01DX010 (sc), vehicle: water) 176 % of control.
Take `Cc1ccc(S(=O)(=O)N/N=C/C(Br)=C(/Br)C(=O)O)cc1`: the T/C (dose: 1.25 mg/kg/injection, schedule: Q04DX003 (sc), vehicle: saline) is 122 % of control; the T/C (dose: 5.0 mg/kg/injection, schedule: Q04DX003 (sc), vehicle: saline) is 115 % of control; the T/C (dose: 10.0 mg/kg/injection, schedule: Q04DX003 (sc), vehicle: saline) was 82 % of control.
Regarding `CC[C@]1(O)C[C@H]2CN(CCc3c([nH]c4ccccc34)[C@@](C(=O)OC)(c3cc4c(cc3OC)N(C=O)[C@H]3[C@@](O)(C(=O)OC)[C@H](OC(C)=O)[C@]5(CC)C=CCN6CC[C@]43[C@@H]65)C2)C1`, the T/C reads like this: (dose: 0.13 mg/kg/injection, schedule: Q01DX010 (sc), vehicle: saline) 69 % of control; (dose: 0.25 mg/kg/injection, schedule: Q01DX010 (sc), vehicle: saline) 20 % of control; (dose: 0.5 mg/kg/injection, schedule: Q01DX010 (sc), vehicle: saline) 1 % of control.
In the case of `CC(=O)Nc1cscc1NC(C)=O`, the T/C runs as follows: (dose: 150.0 mg/kg/injection, schedule: Q04DX003 (sc), vehicle: saline with Tween-80) 89 % of control; under setting [1], 121 % of control; under setting [2], 111 % of control; under setting [3], 110 % of control.
For the compound `O=C1N=C(Oc2ccccc2)SC1=O`, the T/C is 87 % of control (dose: 100.0 mg/kg/injection, schedule: Q04DX003 (sc), vehicle: saline with Tween-80); 93 % of control (dose: 200.0 mg/kg/injection, schedule: Q04DX003 (sc), vehicle: saline with Tween-80); 54 % of control (dose: 400.0 mg/kg/injection, schedule: Q04DX003 (sc), vehicle: saline with Tween-80).
Take `CCCC(=O)Oc1ccc(/C=N/NC(N)=S)nc1`: the T/C was 66 % of control under setting [4]; 42 % of control under setting [5]; 19 % of control (dose: 400.0 mg/kg/injection, schedule: Q01DX010 (sc), vehicle: saline with Tween-80).
Turning to `CCOC(=O)c1cn(C)c2c1C(O)=C(C(=O)OC)CC(=O)N2`, the T/C by setting is: under setting [1], 99 % of control; under setting [2], 55 % of control; under setting [3], 111 % of control; (dose: 2400.0 mg/kg/injection, schedule: Q04DX003 (sc), vehicle: saline with Tween-80) 154 % of control.
On to `CSc1cc(=O)n2c3ccccc3c3ccnc1c32`, for which the T/C reads like this: (dose: 80.0 mg/kg/injection, schedule: Q04DX003 (sc), vehicle: saline with Tween-80) 56 % of control; (dose: 160.0 mg/kg/injection, schedule: Q04DX003 (sc), vehicle: saline with Tween-80) 64 % of control; (dose: 320.0 mg/kg/injection, schedule: Q04DX003 (sc), vehicle: saline with Tween-80) 107 % of control.
For `O=NN(CCCl)C(=O)NC1CCC(=O)NC1=O` (stereo not given), the T/C is, setting by setting: (dose: 1.56 mg/kg/injection, schedule: Q01DX010 (sc), vehicle: saline with Tween-80) 25 % of control; (dose: 3.13 mg/kg/injection, schedule: Q01DX010 (sc), vehicle: saline with Tween-80) 12 % of control; (dose: 5.2 mg/kg/injection, schedule: Q04DX003 (sc), vehicle: saline with Tween-80) 58 % of control; (dose: 6.25 mg/kg/injection, schedule: Q01DX010 (sc), vehicle: saline with Tween-80) 1 % of control; (dose: 10.4 mg/kg/injection, schedule: Q04DX003 (sc), vehicle: saline with Tween-80) 3 % of control; under setting [6], -100 % of control. Further, the T/C (dose: 20.8 mg/kg/injection, schedule: Q04DX003 (sc), vehicle: saline with Tween-80) was -47 % of control.
Consider `O=NN(CCCl)C(=O)NC1CCCCC1`, for which the T/C by setting is: (dose: 12.5 mg/kg/injection, schedule: Q04DX003 (sc), vehicle: Klucel (hydroxypropylcellulose) (HPC)) 47 % of control; (dose: 25.0 mg/kg/injection, schedule: Q04DX003 (sc), vehicle: Klucel (hydroxypropylcellulose) (HPC)) 29 % of control; (dose: 26.66 mg/kg/injection, schedule: Q04DX003 (sc), vehicle: saline with Tween-80) 4 % of control; (dose: 50.0 mg/kg/injection, schedule: Q04DX003 (sc), vehicle: Klucel (hydroxypropylcellulose) (HPC)) -25 % of control; (dose: 53.33 mg/kg/injection, schedule: Q04DX003 (sc), vehicle: saline with Tween-80) -73 % of control; (dose: 100.0 mg/kg/injection, schedule: Q04DX003 (sc), vehicle: Klucel (hydroxypropylcellulose) (HPC)) 4 % of control.
Consider `Cn1c(=O)[nH]c2nncnc2c1=O`, for which, where the note is “dose: 62.5 mg/kg/injection, schedule: Q04DX003 (sc), vehicle: water”, the T/C is 110 % of control.
For `CN(C)c1nc(N(C)C)nc(N(C)C)n1`, the T/C was 63 % of control under setting [6]; 95 % of control (dose: 25.0 mg/kg/injection, schedule: Q01DX010 (sc), vehicle: saline with Tween-80); 51 % of control (dose: 60.0 mg/kg/injection, schedule: Q01DX010 (sc), vehicle: saline with Tween-80); 121 % of control under setting [4]; 58 % of control (dose: 120.0 mg/kg/injection, schedule: Q01DX010 (sc), vehicle: saline with Tween-80); 74 % of control under setting [5].
Regarding `CCCCNc1ccc2nnc(C)n2n1`, under “dose: 150.0 mg/kg/injection, schedule: Q04DX003 (ip), vehicle: DMSO”, the T/C was 99 % of control.
For `Cc1c2oc3c(C)ccc(C(=O)N[C@@H]4C(=O)N[C@H](C(C)C)C(=O)N5CCC[C@H]5C(=O)N(C)CC(=O)N(C)[C@@H](C(C)C)C(=O)O[C@H]4C)c3nc-2c(C(=O)N[C@@H]2C(=O)N[C@H](C(C)C)C(=O)N3CCC[C@H]3C(=O)N(C)CC(=O)N(C)[C@@H](C(C)C)C(=O)O[C@H]2C)c(N)c1=O` (I: [aThr][dV]P[Sar][NMeV] / II: [aThr][dV]P[Sar][NMeV]; ester I:1-I:C, II:1-II:C; linker I:N-II:N via Actinocin(9to1)), the T/C is 35 % of control (dose: 50.0 micrograms/kg/injection, schedule: Q01DX010 (sc), vehicle: saline) and 11 % of control (dose: 100.0 micrograms/kg/injection, schedule: Q01DX010 (sc), vehicle: saline).
With `O=C(CCCN1CCC(C(O)c2ccc(F)cc2)CC1)c1ccc(F)cc1` (stereo not given), the T/C runs as follows: (dose: 12.5 mg/kg/injection, schedule: Q04DX003 (ip), vehicle: saline with Tween-80) 64 % of control; (dose: 25.0 mg/kg/injection, schedule: Q04DX003 (ip), vehicle: saline with Tween-80) 68 % of control; (dose: 50.0 mg/kg/injection, schedule: Q04DX003 (ip), vehicle: saline with Tween-80) 69 % of control.
Consider `CC(=O)NC(CCc1ccc(Cl)c(Cl)c1)c1cccc(O)c(=O)c1` (stereo not given), for which the T/C reads like this: (dose: 50.0 mg/kg/injection, schedule: Q04DX003 (ip), vehicle: Klucel (hydroxypropylcellulose) (HPC)) 52 % of control; (dose: 100.0 mg/kg/injection, schedule: Q04DX003 (ip), vehicle: Klucel (hydroxypropylcellulose) (HPC)) 62 % of control; (dose: 200.0 mg/kg/injection, schedule: Q04DX003 (ip), vehicle: Klucel (hydroxypropylcellulose) (HPC)) 57 % of control.
On to `N/C=N/O`, for which the T/C by setting is: (dose: 200.0 mg/kg/injection, schedule: Q01DX010 (sc), vehicle: saline) 180 % of control; (dose: 400.0 mg/kg/injection, schedule: Q01DX010 (sc), vehicle: saline) 161 % of control.

These data come from PubChem BioAssay AID266 (DTP/NCI, 2004).
